Laboratory results published in PubChem BioAssay (NCI).
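Compound exposure: 48 hours, 5 concentrations, 96-well plates. GI50: concentration for 50% inhibition of growth. TGI denotes the concentration required for complete inhibition of growth.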

Assays:
Assay in all cases: DTP human tumour cell line panel, 48 h
HCT-116 colon = tested on: HCT-116 colon
OVCAR-8 ovarian = tested on: OVCAR-8 ovarian
SF-295 CNS = tested on: SF-295 CNS
A549 NSCLC = tested on: A549 NSCLC
HOP-62 NSCLC = tested on: HOP-62 NSCLC
SF-268 CNS = tested on: SF-268 CNS
TK-10 renal = tested on: TK-10 renal
SK-OV-3 ovarian = tested on: SK-OV-3 ovarian
ACHN renal = tested on: ACHN renal
SR leukemia = tested on: SR leukemia

Structure (SMILES): COC(=O)[C@@]1(Cc2ccccc2)[C@H]2c3cc(C(=O)N4CCCC4)n(Cc4ccc(OC)c(OC)c4)c3C[C@H]2CN1C(=O)c1ccccc1
- GI50 (HCT-116 colon): 7.28 µM
- TGI (HCT-116 colon): 13.8 µM
- GI50 (OVCAR-8 ovarian): 11.8 µM
- TGI (OVCAR-8 ovarian): 34.1 µM
- GI50 (SF-295 CNS): 12.7 µM
- TGI (SF-295 CNS): 34.4 µM
- GI50 (A549 NSCLC): 13.7 µM
- TGI (A549 NSCLC): 46.2 µM
- GI50 (HOP-62 NSCLC): 8.34 µM
- TGI (HOP-62 NSCLC): 17.8 µM
- GI50 (SF-268 CNS): 13.3 µM
- TGI (SF-268 CNS): > 50 µM
- GI50 (TK-10 renal): 16 µM
- TGI (TK-10 renal): 43.9 µM
- GI50 (SK-OV-3 ovarian): 18.9 µM
- TGI (SK-OV-3 ovarian): > 50 µM
- GI50 (ACHN renal): 17.8 µM
- TGI (ACHN renal): > 50 µM

Structure (SMILES): COc1c2c3ccccc3nc-2n(C)c2ccccc12
- GI50 (HCT-116 colon): 4.18 µM
- TGI (HCT-116 colon): 81.7 µM
- GI50 (SR leukemia): 7.1 µM
- TGI (SR leukemia): > 100 µM
- GI50 (OVCAR-8 ovarian): 25.7 µM
- TGI (OVCAR-8 ovarian): > 100 µM
- GI50 (SF-295 CNS): 20.8 µM
- TGI (SF-295 CNS): > 100 µM
- GI50 (A549 NSCLC): 14.3 µM
- TGI (A549 NSCLC): > 100 µM
- GI50 (HOP-62 NSCLC): 8.61 µM
- TGI (HOP-62 NSCLC): 33.6 µM
- GI50 (SF-268 CNS): 10.2 µM
- TGI (SF-268 CNS): 30.4 µM
- GI50 (TK-10 renal): 11.7 µM
- TGI (TK-10 renal): 58.5 µM
- GI50 (ACHN renal): 3.33 µM
- TGI (ACHN renal): 19.4 µM

Structure (SMILES): O=C(NCCc1ccccc1)C(c1ccccc1)(c1ccccc1)c1ccccc1
- GI50 (HCT-116 colon): 1.95 µM
- TGI (HCT-116 colon): > 100 µM
- GI50 (OVCAR-8 ovarian): 1.62 µM
- TGI (OVCAR-8 ovarian): 4.44 µM
- GI50 (SF-295 CNS): 2.51 µM
- TGI (SF-295 CNS): 9.36 µM
- GI50 (A549 NSCLC): 1.75 µM
- TGI (A549 NSCLC): 5.59 µM
- GI50 (HOP-62 NSCLC): 7.1 µM
- TGI (HOP-62 NSCLC): > 100 µM
- GI50 (SF-268 CNS): 30 µM
- TGI (SF-268 CNS): > 100 µM
- GI50 (TK-10 renal): 1.86 µM
- TGI (TK-10 renal): 9.42 µM
- GI50 (SK-OV-3 ovarian): 26 µM
- TGI (SK-OV-3 ovarian): > 100 µM
- GI50 (ACHN renal): 3.13 µM
- TGI (ACHN renal): 9.35 µM

Structure (SMILES): Fc1ccc(-c2nn3c(CNc4ccccc4)nnc3s2)cc1
- GI50 (HCT-116 colon): 26.5 µM
- TGI (HCT-116 colon): > 100 µM
- GI50 (SR leukemia): > 100 µM
- TGI (SR leukemia): > 100 µM
- GI50 (OVCAR-8 ovarian): 34.7 µM
- TGI (OVCAR-8 ovarian): > 100 µM
- GI50 (SF-295 CNS): 20.5 µM
- TGI (SF-295 CNS): 59.3 µM
- GI50 (A549 NSCLC): 36.7 µM
- TGI (A549 NSCLC): > 100 µM
- GI50 (HOP-62 NSCLC): 33.8 µM
- TGI (HOP-62 NSCLC): > 100 µM
- GI50 (SF-268 CNS): 64.3 µM
- TGI (SF-268 CNS): > 100 µM
- GI50 (TK-10 renal): 30.2 µM
- TGI (TK-10 renal): > 100 µM
- GI50 (ACHN renal): 66.8 µM
- TGI (ACHN renal): > 100 µM

Structure (SMILES): CO/[N+]([O-])=C\C(=O)N/C=C/C(=O)O
- TGI (HCT-116 colon): > 100 µM
- TGI (SR leukemia): > 100 µM
- TGI (OVCAR-8 ovarian): > 100 µM
- TGI (SF-295 CNS): > 100 µM
- TGI (HOP-62 NSCLC): > 100 µM
- TGI (SF-268 CNS): > 100 µM
- TGI (SK-OV-3 ovarian): > 100 µM
- TGI (ACHN renal): > 100 µM

Structure (SMILES): O=C(NCCO)c1cc2c(cn1)[nH]c1ccccc12
- TGI (HCT-116 colon): > 100 µM
- TGI (OVCAR-8 ovarian): > 100 µM
- TGI (SF-295 CNS): > 100 µM
- TGI (A549 NSCLC): > 100 µM
- TGI (HOP-62 NSCLC): 40.1 µM
- TGI (SF-268 CNS): > 100 µM
- TGI (TK-10 renal): > 100 µM
- TGI (SK-OV-3 ovarian): > 100 µM
- TGI (ACHN renal): > 100 µM

Structure (SMILES): CSc1nc(NC2OCC(OC(C)=O)C(OC(C)=O)C2OC(C)=O)c(N=C(C)C(C)=O)c(=O)n1C (stereo not given)
- TGI (HCT-116 colon): > 100 µM
- TGI (OVCAR-8 ovarian): > 100 µM
- TGI (SF-295 CNS): > 100 µM
- TGI (A549 NSCLC): > 100 µM
- TGI (HOP-62 NSCLC): > 100 µM
- TGI (TK-10 renal): > 100 µM
- TGI (SK-OV-3 ovarian): > 100 µM
- TGI (ACHN renal): > 100 µM

Structure (SMILES): O=C(CSc1nc2ccccc2nc1-c1ccccc1)Nc1ccc(Cl)cc1
- GI50 (HCT-116 colon): 5.24 µM
- TGI (HCT-116 colon): 24 µM
- GI50 (OVCAR-8 ovarian): 25.5 µM
- TGI (OVCAR-8 ovarian): > 100 µM
- GI50 (SF-295 CNS): 17.5 µM
- TGI (SF-295 CNS): 85.1 µM
- GI50 (A549 NSCLC): 32 µM
- TGI (A549 NSCLC): > 100 µM
- GI50 (HOP-62 NSCLC): 5.28 µM
- TGI (HOP-62 NSCLC): 20.4 µM
- GI50 (SF-268 CNS): 15.5 µM
- TGI (SF-268 CNS): 51.3 µM
- GI50 (TK-10 renal): 35.9 µM
- TGI (TK-10 renal): > 100 µM
- GI50 (SK-OV-3 ovarian): 78.9 µM
- TGI (SK-OV-3 ovarian): > 100 µM
- GI50 (ACHN renal): 12.3 µM
- TGI (ACHN renal): 47.1 µM
